Columns and labels:
[1] = biological target: Aurora kinase B (Homo sapiens) (UniProt Q96GD4); experiment: Inhibition of human Aurora B at 500 nM by HotSpot assay relative to control
[2] = biological target: Calcium/calmodulin-dependent protein kinase type II subunit gamma (Homo sapiens) (UniProt Q13555); experiment: Inhibition of human CAMK2g at 500 nM by HotSpot assay relative to control
[3] = biological target: T1, Dual specificity tyrosine-phosphorylation-regulated kinase 3 (Homo sapiens) (UniProt O43781); experiment: Inhibition of human DYRK3 at 500 nM by HotSpot assay relative to control
T1 sequence (whole entry): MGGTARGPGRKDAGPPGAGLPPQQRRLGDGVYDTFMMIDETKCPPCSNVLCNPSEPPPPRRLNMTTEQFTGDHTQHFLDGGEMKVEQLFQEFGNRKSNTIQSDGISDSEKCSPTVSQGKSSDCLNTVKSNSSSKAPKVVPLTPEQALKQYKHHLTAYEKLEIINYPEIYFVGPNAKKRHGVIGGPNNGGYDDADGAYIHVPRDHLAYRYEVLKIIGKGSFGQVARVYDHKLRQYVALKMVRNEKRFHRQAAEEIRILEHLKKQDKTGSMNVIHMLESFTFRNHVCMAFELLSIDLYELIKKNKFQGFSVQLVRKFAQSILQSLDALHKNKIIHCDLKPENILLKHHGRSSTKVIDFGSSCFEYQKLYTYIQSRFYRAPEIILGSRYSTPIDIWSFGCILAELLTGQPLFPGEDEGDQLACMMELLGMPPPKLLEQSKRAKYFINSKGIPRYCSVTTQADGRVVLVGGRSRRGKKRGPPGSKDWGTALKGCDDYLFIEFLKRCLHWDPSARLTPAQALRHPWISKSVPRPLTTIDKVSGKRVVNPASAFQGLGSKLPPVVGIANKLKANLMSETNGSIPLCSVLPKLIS

[4] = biological target: Tyrosine-protein kinase Fyn (Homo sapiens) (UniProt P06241); experiment: Inhibition of human FYN at 500 nM by HotSpot assay relative to control
Chain of Tyrosine-protein kinase Fyn (Homo sapiens) (P06241 2-537 limits assumed): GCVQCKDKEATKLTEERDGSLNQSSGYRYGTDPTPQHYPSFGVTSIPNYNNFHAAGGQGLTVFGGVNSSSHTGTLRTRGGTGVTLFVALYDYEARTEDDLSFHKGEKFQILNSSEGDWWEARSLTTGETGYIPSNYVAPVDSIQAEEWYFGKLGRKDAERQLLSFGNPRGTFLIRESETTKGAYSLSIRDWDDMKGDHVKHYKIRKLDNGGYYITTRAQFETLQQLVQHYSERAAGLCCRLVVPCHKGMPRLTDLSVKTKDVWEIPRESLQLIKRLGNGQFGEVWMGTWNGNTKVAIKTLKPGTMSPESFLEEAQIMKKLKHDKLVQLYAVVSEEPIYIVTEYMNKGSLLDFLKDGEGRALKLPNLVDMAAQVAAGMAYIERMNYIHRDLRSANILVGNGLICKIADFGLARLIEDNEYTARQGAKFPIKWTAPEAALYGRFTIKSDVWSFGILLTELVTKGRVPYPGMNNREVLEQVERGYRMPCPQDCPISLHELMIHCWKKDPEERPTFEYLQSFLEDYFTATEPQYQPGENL

[5] = biological target: Interleukin-1 receptor-associated kinase 1 (Homo sapiens) (UniProt P51617); experiment: Inhibition of human IRAK1 at 500 nM by HotSpot assay relative to control
Chain of Interleukin-1 receptor-associated kinase 1 (Homo sapiens) (P51617 whole entry, looked up): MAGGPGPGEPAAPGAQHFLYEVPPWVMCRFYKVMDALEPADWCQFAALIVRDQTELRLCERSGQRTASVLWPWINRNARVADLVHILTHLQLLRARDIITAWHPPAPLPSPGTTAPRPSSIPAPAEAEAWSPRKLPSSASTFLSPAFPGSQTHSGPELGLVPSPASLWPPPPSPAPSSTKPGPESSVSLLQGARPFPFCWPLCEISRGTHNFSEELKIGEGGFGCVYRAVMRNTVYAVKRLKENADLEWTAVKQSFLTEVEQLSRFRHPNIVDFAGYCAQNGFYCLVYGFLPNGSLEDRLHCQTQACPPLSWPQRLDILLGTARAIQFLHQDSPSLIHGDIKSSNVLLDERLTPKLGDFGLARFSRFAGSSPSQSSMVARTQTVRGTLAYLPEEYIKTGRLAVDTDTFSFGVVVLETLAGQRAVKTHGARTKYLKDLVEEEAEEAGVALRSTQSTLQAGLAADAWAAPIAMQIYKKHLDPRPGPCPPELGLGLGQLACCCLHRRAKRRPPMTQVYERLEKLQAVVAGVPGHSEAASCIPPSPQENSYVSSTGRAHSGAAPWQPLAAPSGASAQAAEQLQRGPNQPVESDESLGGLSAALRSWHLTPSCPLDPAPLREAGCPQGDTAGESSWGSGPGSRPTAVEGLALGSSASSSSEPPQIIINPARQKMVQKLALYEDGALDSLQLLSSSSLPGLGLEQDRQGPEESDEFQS

[6] = biological target: Serine/threonine-protein kinase PAK 5 (Homo sapiens) (UniProt Q9P286); experiment: Inhibition of human PAK5 at 500 nM by HotSpot assay relative to control
Chain of Serine/threonine-protein kinase PAK 5 (Homo sapiens) (Q9P286 whole entry, looked up): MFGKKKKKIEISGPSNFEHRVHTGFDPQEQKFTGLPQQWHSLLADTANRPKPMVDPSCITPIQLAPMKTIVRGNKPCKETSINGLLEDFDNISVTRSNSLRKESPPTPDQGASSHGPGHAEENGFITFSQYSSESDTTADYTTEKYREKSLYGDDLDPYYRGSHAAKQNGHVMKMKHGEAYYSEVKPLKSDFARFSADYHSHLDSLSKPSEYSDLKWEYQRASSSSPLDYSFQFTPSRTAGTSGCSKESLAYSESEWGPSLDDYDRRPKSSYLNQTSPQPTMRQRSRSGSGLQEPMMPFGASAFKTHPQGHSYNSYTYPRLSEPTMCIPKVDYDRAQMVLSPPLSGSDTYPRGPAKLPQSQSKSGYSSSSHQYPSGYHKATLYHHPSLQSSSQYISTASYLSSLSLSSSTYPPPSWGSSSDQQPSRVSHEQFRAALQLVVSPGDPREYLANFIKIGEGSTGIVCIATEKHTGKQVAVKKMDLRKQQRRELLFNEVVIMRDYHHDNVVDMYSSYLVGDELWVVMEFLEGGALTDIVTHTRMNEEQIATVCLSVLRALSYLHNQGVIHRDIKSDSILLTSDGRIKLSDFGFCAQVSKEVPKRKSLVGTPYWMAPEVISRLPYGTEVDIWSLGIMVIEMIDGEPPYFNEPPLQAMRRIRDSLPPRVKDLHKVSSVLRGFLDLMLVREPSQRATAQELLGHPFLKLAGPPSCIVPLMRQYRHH

[7] = biological target: T2, Serine/threonine-protein kinase D2 (Homo sapiens) (UniProt Q9BZL6); experiment: Inhibition of human PRKD2 at 500 nM by HotSpot assay relative to control
T2 sequence (whole entry): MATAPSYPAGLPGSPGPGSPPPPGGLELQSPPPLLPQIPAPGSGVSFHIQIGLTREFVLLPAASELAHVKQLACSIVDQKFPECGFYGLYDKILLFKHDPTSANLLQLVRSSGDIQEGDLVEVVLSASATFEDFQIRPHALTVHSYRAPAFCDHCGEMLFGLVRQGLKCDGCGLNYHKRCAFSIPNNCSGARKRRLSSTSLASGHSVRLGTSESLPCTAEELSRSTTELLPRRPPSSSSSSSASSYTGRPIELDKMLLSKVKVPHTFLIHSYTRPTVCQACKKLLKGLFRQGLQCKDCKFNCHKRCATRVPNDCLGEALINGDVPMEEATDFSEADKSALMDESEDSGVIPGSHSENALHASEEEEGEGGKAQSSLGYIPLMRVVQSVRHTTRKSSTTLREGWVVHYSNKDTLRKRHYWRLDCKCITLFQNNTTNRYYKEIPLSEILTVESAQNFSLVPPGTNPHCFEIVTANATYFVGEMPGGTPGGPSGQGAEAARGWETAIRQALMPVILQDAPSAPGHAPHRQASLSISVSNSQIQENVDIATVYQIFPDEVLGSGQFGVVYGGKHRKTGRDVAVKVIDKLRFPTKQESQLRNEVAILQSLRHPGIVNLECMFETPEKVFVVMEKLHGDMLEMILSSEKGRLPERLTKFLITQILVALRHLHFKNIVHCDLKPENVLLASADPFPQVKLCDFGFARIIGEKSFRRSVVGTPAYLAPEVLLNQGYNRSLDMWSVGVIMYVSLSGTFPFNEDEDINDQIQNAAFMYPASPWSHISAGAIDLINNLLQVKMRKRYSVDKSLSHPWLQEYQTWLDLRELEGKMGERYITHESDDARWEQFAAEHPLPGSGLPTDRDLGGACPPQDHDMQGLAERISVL

[8] = biological target: T3, Serine/threonine-protein kinase Sgk2 (Homo sapiens) (UniProt Q9HBY8); experiment: Inhibition of human SGK2 at 500 nM by HotSpot assay relative to control
T3 sequence (whole entry): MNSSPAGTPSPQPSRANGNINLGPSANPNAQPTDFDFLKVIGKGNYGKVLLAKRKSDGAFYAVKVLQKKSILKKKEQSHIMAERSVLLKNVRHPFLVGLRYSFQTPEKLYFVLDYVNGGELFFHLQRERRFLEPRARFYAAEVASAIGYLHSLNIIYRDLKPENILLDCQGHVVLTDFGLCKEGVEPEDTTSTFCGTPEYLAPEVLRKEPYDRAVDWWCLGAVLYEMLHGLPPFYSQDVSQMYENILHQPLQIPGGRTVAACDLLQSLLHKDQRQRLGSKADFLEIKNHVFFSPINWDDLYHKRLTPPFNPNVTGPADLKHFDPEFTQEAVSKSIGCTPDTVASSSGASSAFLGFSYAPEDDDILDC

[9] = biological target: T4, Serine/threonine-protein kinase Sgk3 (Homo sapiens) (UniProt Q96BR1); experiment: Inhibition of human SGKL at 500 nM by HotSpot assay relative to control
T4 sequence (whole entry): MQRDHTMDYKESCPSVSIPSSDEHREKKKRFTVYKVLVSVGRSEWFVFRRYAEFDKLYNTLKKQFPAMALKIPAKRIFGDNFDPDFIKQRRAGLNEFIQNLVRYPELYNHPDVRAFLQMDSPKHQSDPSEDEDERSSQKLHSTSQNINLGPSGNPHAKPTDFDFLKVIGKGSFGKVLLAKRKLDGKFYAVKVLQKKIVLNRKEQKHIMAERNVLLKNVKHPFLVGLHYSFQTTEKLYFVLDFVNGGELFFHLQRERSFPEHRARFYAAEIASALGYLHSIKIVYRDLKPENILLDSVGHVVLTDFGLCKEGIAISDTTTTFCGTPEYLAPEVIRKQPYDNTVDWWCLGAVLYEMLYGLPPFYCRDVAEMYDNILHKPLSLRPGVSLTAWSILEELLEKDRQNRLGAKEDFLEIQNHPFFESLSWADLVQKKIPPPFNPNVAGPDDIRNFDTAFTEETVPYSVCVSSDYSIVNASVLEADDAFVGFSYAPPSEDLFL

[10] = biological target: BDNF/NT-3 growth factors receptor (Homo sapiens) (UniProt Q16620); experiment: Inhibition of human TRKB at 500 nM by HotSpot assay relative to control
Chain of BDNF/NT-3 growth factors receptor (Homo sapiens) (Q16620 32-822 limits assumed): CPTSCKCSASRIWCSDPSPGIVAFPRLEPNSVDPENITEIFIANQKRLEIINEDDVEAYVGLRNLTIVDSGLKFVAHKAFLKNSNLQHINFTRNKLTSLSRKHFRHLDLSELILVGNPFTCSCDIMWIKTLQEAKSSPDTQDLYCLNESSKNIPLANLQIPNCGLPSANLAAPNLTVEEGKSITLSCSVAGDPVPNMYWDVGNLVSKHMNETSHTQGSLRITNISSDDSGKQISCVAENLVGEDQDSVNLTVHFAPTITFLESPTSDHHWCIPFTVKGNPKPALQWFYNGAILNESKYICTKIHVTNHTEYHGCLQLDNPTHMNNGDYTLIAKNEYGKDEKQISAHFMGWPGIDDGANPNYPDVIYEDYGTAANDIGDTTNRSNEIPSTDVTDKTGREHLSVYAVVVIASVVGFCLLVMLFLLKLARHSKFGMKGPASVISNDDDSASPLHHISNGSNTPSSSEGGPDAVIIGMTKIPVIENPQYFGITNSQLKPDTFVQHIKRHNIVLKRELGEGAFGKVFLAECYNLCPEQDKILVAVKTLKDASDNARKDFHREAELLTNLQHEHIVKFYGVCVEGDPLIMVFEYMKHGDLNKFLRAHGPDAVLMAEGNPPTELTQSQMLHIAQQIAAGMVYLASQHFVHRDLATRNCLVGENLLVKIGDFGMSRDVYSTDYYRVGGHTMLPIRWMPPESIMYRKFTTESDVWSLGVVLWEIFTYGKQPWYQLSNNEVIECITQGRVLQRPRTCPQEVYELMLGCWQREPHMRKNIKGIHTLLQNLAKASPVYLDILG

[11] = biological target: Serine/threonine-protein kinase OSR1 (Homo sapiens) (UniProt O95747); experiment: Inhibition of human OXSR1 at 500 nM by HotSpot assay relative to control
Chain of Serine/threonine-protein kinase OSR1 (Homo sapiens) (O95747 whole entry, looked up): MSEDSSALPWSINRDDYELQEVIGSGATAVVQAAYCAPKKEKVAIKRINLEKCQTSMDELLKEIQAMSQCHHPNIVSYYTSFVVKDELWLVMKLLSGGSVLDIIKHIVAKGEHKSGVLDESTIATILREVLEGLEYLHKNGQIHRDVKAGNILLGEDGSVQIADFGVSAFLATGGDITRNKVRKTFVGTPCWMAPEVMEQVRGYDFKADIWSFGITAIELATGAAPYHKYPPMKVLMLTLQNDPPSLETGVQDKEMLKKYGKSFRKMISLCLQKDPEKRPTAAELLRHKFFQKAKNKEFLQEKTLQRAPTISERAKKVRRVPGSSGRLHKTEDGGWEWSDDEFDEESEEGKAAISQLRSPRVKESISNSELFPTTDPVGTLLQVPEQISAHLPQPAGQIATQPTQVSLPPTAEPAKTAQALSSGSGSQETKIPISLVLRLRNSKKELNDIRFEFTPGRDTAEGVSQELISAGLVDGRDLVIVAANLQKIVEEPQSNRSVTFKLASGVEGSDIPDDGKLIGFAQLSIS

Chain of Calcium/calmodulin-dependent protein kinase type II subunit gamma (Homo sapiens) (Q13555 whole entry): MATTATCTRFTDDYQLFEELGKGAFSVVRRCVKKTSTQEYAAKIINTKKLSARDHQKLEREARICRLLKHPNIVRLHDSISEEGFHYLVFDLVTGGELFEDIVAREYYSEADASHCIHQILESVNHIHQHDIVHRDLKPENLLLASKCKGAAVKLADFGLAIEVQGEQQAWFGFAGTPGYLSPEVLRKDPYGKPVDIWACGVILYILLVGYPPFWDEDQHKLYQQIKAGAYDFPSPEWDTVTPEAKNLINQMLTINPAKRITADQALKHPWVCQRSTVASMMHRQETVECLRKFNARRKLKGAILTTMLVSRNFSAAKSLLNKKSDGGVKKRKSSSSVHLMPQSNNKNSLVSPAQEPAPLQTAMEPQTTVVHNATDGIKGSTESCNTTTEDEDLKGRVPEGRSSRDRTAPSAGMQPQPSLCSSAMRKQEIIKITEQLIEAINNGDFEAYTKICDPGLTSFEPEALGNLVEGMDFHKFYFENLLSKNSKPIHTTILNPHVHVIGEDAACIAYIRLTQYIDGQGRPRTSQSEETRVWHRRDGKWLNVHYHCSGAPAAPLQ
Chain of Aurora kinase B (Homo sapiens) (Q96GD4 whole entry): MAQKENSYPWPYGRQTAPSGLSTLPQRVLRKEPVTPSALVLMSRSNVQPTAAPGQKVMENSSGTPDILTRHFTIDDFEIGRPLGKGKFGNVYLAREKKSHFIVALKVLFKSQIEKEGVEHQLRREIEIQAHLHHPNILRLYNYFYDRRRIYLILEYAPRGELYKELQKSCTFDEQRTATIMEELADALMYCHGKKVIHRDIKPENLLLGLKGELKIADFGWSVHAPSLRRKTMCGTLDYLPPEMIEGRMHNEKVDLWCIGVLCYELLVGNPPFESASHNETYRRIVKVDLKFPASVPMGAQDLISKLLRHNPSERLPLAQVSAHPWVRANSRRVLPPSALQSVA

Row | SMILES | inhibition [1] [%] | inhibition [2] [%] | inhibition [3] [%] | inhibition [4] [%] | inhibition [5] [%] | inhibition [6] [%] | inhibition [7] [%] | inhibition [8] [%] | inhibition [9] [%] | inhibition [10] [%] | inhibition [11] [%]
1 | Oc1n[nH]c2nnc(-c3c(-c4ccccc4)nn4ccccc34)cc12 | 2.45 | 2.06 | 1.62 | -0.67 | -2.21 | 11.6 | 2.86 | 3.78 | 0.31 | 2.59 | -8.54
2 | Nc1n[nH]c2nnc(-c3c(-c4ccccc4)nn4ccccc34)cc12 | 3.24 | 3.3 | 0.17 | 4.98 | 0.31 | 1.83 | 45.9 | 1.2 | 9.81 | 10.3 | -2.39

Source: ChEMBL document CHEMBL5653615 (J Biol Chem, 2013)
